Reference: article PMC9220351, “Evaluation of a Conformationally Constrained Indole Carboxamide as a Potential Efflux Pump Inhibitor in Pseudomonas aeruginosa” (Antibiotics, 2022)
Like-named read-outs stand apart in the source and are kept apart here.

How the values were obtained:
Assay type in all cases: cell-based, Pseudomonas aeruginosa
[1] = tested on: 209 P. aeruginosa clinical isolates from three US hospitals; test: Susceptibility study, Micromyx panel; settings: n: 209
Excerpt: (§1) First, 209 clinical isolates of P. aeruginosa were collected, unbiased of susceptibility, from three US hospitals by Micromyx (now part of Microbiologics; Kalamazoo, MI, USA). IHMA (Monthey, Switzerland) collected 300 P. aeruginosa clinical isolates, also unbiased of susceptibility, from the following 63 countries: Argentina, Australia, Belgium, Brazil, Canada, Chile, Colombia, Costa Rica, Croatia, Czech Republic, Denmark, Dominican Republic, Ecuador, France, Georgia, Germany, Greece, Guatemala, Hong Kong, Hungary, India, Ireland, Israel, Italy, Japan, Jordan, Kazakhstan, Kenya, South Korea, Kuwait, Latvia, Lebanon, Lithuania, Malaysia, Mexico, Morocco, Netherlands, New Zealand, Nigeria, Panama, Philippines, Poland, Portugal, Puerto Rico, Qatar, Romania, Russia, Saudi Arabia, Serbia, Slovenia, South Africa, Spain, Sweden, Switzerland, Taiwan, Thailand, Tunisia, Turkey, Ukraine, United Kingdom, United States, Venezuela, and Vietnam. Isolates came from the following types of infection: genitourinary (urine), gastrointestinal (stomach), gastrointestinal (pancreas), […] (wound), respiratory (sputum), […] (blood), respiratory (bronchoalveolar lavage), […] (burn), respiratory (endotracheal aspirate), bodily fluids (abscess/pus), […] (impetiginous lesions), gastrointestinal (abscess) and respiratory (bronchial brushing). CF patients were not excluded.
(§2) MIC assays were performed as described previously.

[2] = tested on: 300 P. aeruginosa clinical isolates from 63 countries; test: Susceptibility study, IHMA panel; settings: n: 300
Excerpt: as §1, §2

[3] = tested on: 34 MDR P. aeruginosa clinical isolates (CDC & FDA AR Isolate Bank); test: microbe, parasite or virus in culture; settings: for MIC: Pseudomonas aeruginosa, alone or + labelled EPI […] (TXA09155 head: 50 µg/mL)
Excerpt: P. aeruginosa ATCC 27853 was obtained from the American Type Culture Collection (ATCC; Manassas, VA, USA). P. aeruginosa multidrug-resistant isolates were obtained from the CDC and FDA Antibiotic Resistance Isolate Bank (Atlanta, GA, USA). P. aeruginosa DA7232 (gyrA-T83I, parC-S80L) was a kind gift from Prof. Dan I. Andersson, Uppsala University, Uppsala, Sweden, and has been characterized elsewhere. P. aeruginosa strains K767 (WT), K1455 (mexAB-oprM overexpressed), K2415 (mexXY-oprM overexpressed), and K3698 (oprM∆) were obtained from Prof. Keith Poole, Queen’s University, Kingston, Ontario, Canada and have been characterized elsewhere. Bacterial cells were grown in cation-adjusted Mueller Hinton (CAMH) media, brain heart infusion broth (BHI), or tryptic soy agar (TSA) plates were all obtained from Becton, Dickinson, and Company (BD; Franklin Lakes, NJ, USA). […] Azithromycin was purchased from Tokyo Chemical Industry (Portland, OR, USA). […] Ethidium bromide (EtBr) and glucose were purchased from VWR (Radnor, PA, USA). MC-04,124 and TXA01182 were synthesized at TAXIS Pharmaceuticals. Carbonyl cyanide 3-chlorophenylhydrazone (CCCP) was purchased from Enzo Life Sciences (Farmingdale, NY, USA). DiOC2 (3) and propidium iodide were obtained from Thermo Fisher Scientific (Waltham, MA, USA).
as §2

[4] = tested on: P. aeruginosa mutants EPIR1S, EPIR9S, EPIR20L, EPIR43; test: MIC of antimicrobials in TXA09155-resistant mutants; settings: Pseudomonas aeruginosa
Method: All resistant colonies were verified by determining the MIC to TXA09155. […] This two-component system regulates the expression of more than 100 genes in P. aeruginosa, including genes that code for efflux components (mexX), and plays a role in the resistance to cationic antimicrobial peptides and aminoglycoside antibiotics.
as §2

[5] = in combination TXA09155 fixed […]
[6] = n: 34, in combination EPI fixed […]

C[C@H]1COc2c(N3CCN(C)CC3)c(F)cc3c(=O)c(C(=O)O)cn1c23 [Levofloxacin]
% R (percent resistant per breakpoints) ([1]; LVX ≤1S 2I ≥4R): 32%
Cumulative Susceptibility % Strains at 0.5 ([1]; concentration 0.5 µg/ml): 47%
Cumulative Susceptibility % Strains at 1 ([1]; concentration 1 µg/ml): 58%
Cumulative Susceptibility % Strains at 2 ([1]; concentration 2 µg/ml): 68%
Cumulative Susceptibility % Strains at 4 ([1]; concentration 4 µg/ml): 78%
Cumulative Susceptibility % Strains at 8 ([1]; concentration 8 µg/ml): 86%
Cumulative Susceptibility % Strains at 16 ([1]; concentration 16 µg/ml): 93%
Cumulative Susceptibility % Strains at 32 ([1]; concentration 32 µg/ml): 98%
Cumulative Susceptibility % Strains at >32 ([1]; concentration >32 µg/ml): 100%
Cumulative Susceptibility % Strains at 0.12 ([1]; concentration column 0.12 µg/ml): 2%
MIC50 [1, 5]: 1 µg/mL
MIC90 [1, 5]: 16 µg/mL
% R (percent resistant per breakpoints) ([2]; LVX ≤1S 2I ≥4R): 22%
Cumulative Susceptibility % Strains at 0.5 ([2]; concentration 0.5 µg/ml): 60%
Cumulative Susceptibility % Strains at 1 ([2]; concentration 1 µg/ml): 69%
Cumulative Susceptibility % Strains at 2 ([2]; concentration 2 µg/ml): 78%
Cumulative Susceptibility % Strains at 4 ([2]; concentration 4 µg/ml): 83%
Cumulative Susceptibility % Strains at 8 ([2]; concentration 8 µg/ml): 84%
Cumulative Susceptibility % Strains at 16 ([2]; concentration 16 µg/ml): 89%
Cumulative Susceptibility % Strains at 32 ([2]; concentration 32 µg/ml): 95%
Cumulative Susceptibility % Strains at >32 ([2]; concentration >32 µg/ml): 100%
Cumulative Susceptibility % Strains at 0.06 ([2]; concentration column 0.06 µg/ml): 1%
MIC50 [2, 5]: 0.5 µg/mL
MIC90 [2, 5]: 32 µg/mL
MIC ([3]; read-out: Levofloxacin MIC, strain AR-0229): 64 µg/mL
MIC ([3]; read-out: Levofloxacin MIC, strain AR-0230): 64 µg/mL
MIC ([3]; read-out: Levofloxacin MIC, strain AR-0231): 64 µg/mL
MIC ([3]; read-out: Levofloxacin MIC, strain AR-0232): 8 µg/mL
MIC ([3]; read-out: Levofloxacin MIC, strain AR-0233): 4 µg/mL
MIC ([3]; read-out: Levofloxacin MIC, strain AR-0234): 8 µg/mL
MIC ([3]; read-out: Levofloxacin MIC, strain AR-0236): 32 µg/mL
MIC ([3]; read-out: Levofloxacin MIC, strain AR-0239): 64 µg/mL
MIC ([3]; read-out: Levofloxacin MIC, strain AR-0240): 128 µg/mL
MIC ([3]; read-out: Levofloxacin MIC, strain AR-0241): 64 µg/mL
MIC ([3]; read-out: Levofloxacin MIC, strain AR-0242): 16 µg/mL
MIC ([3]; read-out: Levofloxacin MIC, strain AR-0244): 128 µg/mL
MIC ([3]; read-out: Levofloxacin MIC, strain AR-0245): 128 µg/mL
MIC ([3]; read-out: Levofloxacin MIC, strain AR-0246): 64 µg/mL
MIC ([3]; read-out: Levofloxacin MIC, strain AR-0247): 2 µg/mL
MIC ([3]; read-out: Levofloxacin MIC, strain AR-0248): 16 µg/mL
MIC ([3]; read-out: Levofloxacin MIC, strain AR-0249): 64 µg/mL
MIC ([3]; read-out: Levofloxacin MIC, strain AR-0250): 64 µg/mL
MIC ([3]; read-out: Levofloxacin MIC, strain AR-0252): 32 µg/mL
MIC ([3]; read-out: Levofloxacin MIC, strain AR-0253): 2 µg/mL
MIC ([3]; read-out: Levofloxacin MIC, strain AR-0256): 0.5 µg/mL
MIC ([3]; read-out: Levofloxacin MIC, strain AR-0258): 0.5 µg/mL
MIC ([3]; read-out: Levofloxacin MIC, strain AR-0259): 0.5 µg/mL
MIC ([3]; read-out: Levofloxacin MIC, strain AR-0260): 64 µg/mL
MIC ([3]; read-out: Levofloxacin MIC, strain AR-0261): 8 µg/mL
MIC ([3]; read-out: Levofloxacin MIC, strain AR-0262): 4 µg/mL
MIC ([3]; read-out: Levofloxacin MIC, strain AR-0264): 32 µg/mL
MIC ([3]; read-out: Levofloxacin MIC, strain AR-0265): 64 µg/mL
MIC ([3]; read-out: Levofloxacin MIC, strain AR-0266): 32 µg/mL
MIC ([3]; read-out: Levofloxacin MIC, strain AR-0267): 32 µg/mL
MIC ([3]; read-out: Levofloxacin MIC, strain AR-0269): 32 µg/mL
MIC ([3]; read-out: Levofloxacin MIC, strain AR-0270): 32 µg/mL
MIC ([3]; read-out: Levofloxacin MIC, strain AR-0271): 32 µg/mL
MIC ([3]; read-out: Levofloxacin MIC, strain AR-0272): 16 µg/mL
Cumulative Susceptibility % Strains at 0.5 ([3]; concentration 0.5 µg/ml, n: 34): 9%
Cumulative Susceptibility % Strains at 1 ([3]; concentration 1 µg/ml, n: 34): 9%
Cumulative Susceptibility % Strains at 2 ([3]; concentration 2 µg/ml, n: 34): 15%
Cumulative Susceptibility % Strains at 4 ([3]; concentration 4 µg/ml, n: 34): 21%
Cumulative Susceptibility % Strains at 8 ([3]; concentration 8 µg/ml, n: 34): 29%
Cumulative Susceptibility % Strains at 16 ([3]; concentration 16 µg/ml, n: 34): 38%
Cumulative Susceptibility % Strains at 32 ([3]; concentration 32 µg/ml, n: 34): 62%
Cumulative Susceptibility % Strains at 0.06 ([3]; concentration column 0.06 µg/ml, n: 34): 0%
Cumulative Susceptibility % Strains at 64 ([3]; concentration column 64 µg/ml, n: 34): 91%
Cumulative Susceptibility % Strains at 128 ([3]; concentration column 128 µg/ml, n: 34): 100%
Cumulative Susceptibility % Strains at ≤0.03 ([3]; concentration column ≤0.03 µg/ml, n: 34): 0%
MIC50 [3, 6]: 32 µg/mL
MIC90 [3, 6]: 64 µg/mL
MIC Range [3, 6]: 0.5 to 128 µg/mL
MIC Range ([3]; n: 34, in combination EPI fixed […], listed as LVX): 0.5 to 128 µg/mL
MIC ([4]; strain EPIR1S (phoQ-L175R)): 1 µg/mL
MIC ([4]; strain EPIR9S (phoQ-L175R)): 1 µg/mL
MIC ([4]; strain EPIR20L (phoQ-H248D)): 1 µg/mL
